Values after ≈ are worked out from the molar mass of the structure shown. Structures can show the parent of a compound that is named as a salt.
Tests used:
[1] = tested on: S. aureus Col (Meth^R) (lac^-); test: MIC by agar dilution, S. aureus Col (Meth^R) (lac^-); format: cell-based; settings: Staphylococcus aureus; agar dilution; S. aureus Col (Meth^R) (lac^-); read-out: MIC
In short: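 Log-phase isolates were spot-inoculated at about 10^4 cfu onto Mueller-Hinton agar carrying duplicate two-fold compound levels, 128 μg/mL to ≤0.25 μg/mL, following NCCLS (1991). Plates were read after 16-20 h at 35°-36° C. The lowest growth-inhibiting concentration gave the MIC (μg/ml).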

[2] = tested on: methicillin-susceptible S. aureus strain ATCC 13709; test: murine model for lethal bacteremic peritonitis; format: in vivo, female Swiss-Webster mice; settings: subcutaneous, 72 h
Procedure: Groups of 5 female Swiss-Webster mice (Simonsen, Gilroy, Calif.) each are challenged by the intraperitoneal (IP) route with tenfold increments of a bacterial inoculum. This permits calculation of the mean lethal dose (LD50) and the LD100. For preliminary evaluation of a new antibiotic, mice are challenged IP with an LD100 titer of bacteria. In two equal doses administered at the time of bacterial challenge and 2 hours later, groups of 10 mice each are treated subcutaneously with two-fold increments of the test drug and an antibiotic of known efficacy in mice and humans (i.e., positive control). Mice are observed for 72 h. Those alive at 72 h are considered long term survivors. The total drug dose in mg/kg that protects 50% of mice in a group from death is termed the mean protective dose (PD50). PD50 s are similarly determined for several pathogens. The quantitative endpoints for the new drug are then compared with those obtained with reference antibiotics.
Six ten-fold dilutions of inoculum suspended in 0.5 mL of sterilized 7% hog gastric mucin (Sigma) are injected IP in groups of 5 mice each. A control group of 5 mice receive mucin alone. Mice are observed for 72 h. Those alive at 72 h are considered long term survivors. The mean lethal dose (LD50) and 100% lethal dose (LD100) are determined by the probit test.
For antibiotic efficacy studies, mice are challenged IP with bacterial titers that will afford an LD100 for the test strain. In two equal doses administered at the time of bacterial challenge and 2 hours later, groups of 10 mice each are treated by the subcutaneous route (SC) with twofold increments of the test antibiotic; another group is treated similarly with a reference antibiotic of known efficacy in animals and man. Drug doses can range from 0.01 to 512 mg/kg. If the drug is poorly soluble, Tween 20 or propylene glycol will be employed to solubilize the drug. Animals are observed for 72 h. The 50% protective dose (PD50) is calculated in mg/kg by the probit method. The PD50 is the same as the 50% effective dose (ED50) and the 50% curative dose (CD50). Samples of blood from the hearts of all animals that die and from half the mice that survive are cultured on brain-heart infusion agar. Animals that received a protective dosage of the test drug will be alive at 72 h, although they may appear moderately ill to very ill during the observation period. […] Most of these mice will die within 6 to 48 h. Those alive at 72 h will be considered long term survivors.
(Compound numbers correspond to those in MIC tables; data
reported for challenge with methicillin-susceptible S. aureus

S. aureus ATCC 29213 = test: MIC by agar dilution, S. aureus ATCC 29213; format: cell-based; settings: Staphylococcus aureus, ATCC29213; agar dilution; S. aureus ATCC 29213; read-out: MIC
Procedure: (§1) The compounds of the invention were evaluated against several β-lactamresistant bacteria strains by determining the minimum inhibitory concentration (MIC, μg/ml) of each compound with respect to each strain. The MIC, the lowest concentration of antibiotic which inhibits growth of the test organism, was determined by the agar dilution method.
(§2) To determine the MIC for bacterial isolates, the test compound was incorporated in a series of two-fold dilutions into liquified Mueller-Hinton agar. Upon solidification, a number of different bacterial strains were spot inoculated with a replicating device onto the agar surface. […] The procedures used in these studies have been standardized by the National Committee for Clinical Laboratory Standards (NCCLS), as per the NCCLS publication entitled METHODS FOR DILUTION ANTIMICROBIAL SUSCEPTIBILITY TESTS (1991), which is incorporated herein by reference.
(§3) Aliquots of antimicrobial agents were prepared in phosphate buffered saline (PBS) at pH 7.2. Tween 20 or DMSO was used as a solubilizing vehicle as needed. Standard methods of vortexing, sonicating and gentle heat were used to facilitate solubilizing the test agent. Typically, the concentration of the stock solution was 10× that of the highest drug concentration tested. A 1.28 mg/mL stock solution was used with a subsequent highest working concentration of 128 μg/mL. Serial two-fold dilutions were done through ≤0.25 μg/mL. Each drug level was tested in duplicate. Two-fold drug dilutions were done in sterile 50 mL tubes with a final drug volume of 5 mL. Upon the addition of 45 mL of molten agar, a 10-fold dilution resulted. Two, 25 mL. plates were then poured into 15×150 mm square Petri plates with grids and allowed to harden.
(§4) A control plate with a reference drug, either cefotaxime, vancomycin or imipenem, was used as the positive growth control. Stock concentrations of reference antibiotics were prepared and frozen at -80° C. Upon preparation, the control plates were sealed and stored in the refrigerator for up to 1 week prior to use; however, imipenem control plates had to be prepared just prior to use. All test plates were used within 24 hours of preparation.
(§5) Satisfactory results were obtained where the inoculum contained about 10^4 colony forming units (cfu) ±0.5 logs. Starting with pure cultures of the test isolates on agar plates, a few isolated colonies were transferred to a tube of nutrient broth and allowed to grow 4-6 hours at 35°-36° C. to reach log-phase growth. Dropwise addition of the broth culture to PBS was done to match a 0.5 McFarland turbidity standard equal to 10^8 cfu/mL. This was further diluted ten-fold in PBS to reach a working inoculum concentration of 10^7 cfu/mL. When 1 μL of the working inoculum was applied to the agar surface a concentration of about 10^4 cfu per spot was obtained.
(§6) Disposable sterile 1 μL loops were used to inoculate test plates, with each isolate in a designated grid on the agar plate. An alternate method of inoculation involved the use of a replica plater, a device with 48 steel pins allowing the simultaneous inoculation of multiple isolates. After the spots had dried, the plates were incubated at 35°-36° C. for 16-20 hours. Endpoints were assessed as the minimum inhibitory concentration (MIC) of antimicrobial agent.

[3] = tested on: S. aureus Col8A (Meth^S) (lac^-); test: MIC by agar dilution, S. aureus Col8A (Meth^S) (lac^-); format: cell-based; settings: Staphylococcus aureus; agar dilution; S. aureus Col8A (Meth^S) (lac^-); read-out: MIC
Procedure: as §1, §2, §3, §4, §5, §6
The novel agents of this invention are notable for their enhanced activity against S. aureus Col and Enterococci (E. faecium and E. faecalis). The S. aureus Col strain is a high-level PBP2a producer, whereas S. aureus Col 8A, its isogenic partner, lacks PBP2a. […] Thus, the compounds of the present invention are effective against PBP2a-producing bacteria.

With O=C(CC1CC1)N[C@@H]1C(=O)N2C(C(=O)O)=C(Sc3ccnn3-c3ccccc3)CS[C@H]12 [Cmpd 107, (7R)-7-[(cyclopropylacetyl)amino]-3-(1-N-phenylpyrazol-5-ylthio)-3-cephem-4-carboxylic acid] the MIC [1] was 4 µg/mL (≈ 8.76 µM), the Mortality ([2]; dose 0.625 mg/kg) was 8/10 and the Mortality ([2]; dose 1.25 mg/kg) was 6/10. For the same compound, the Mortality ([2]; dose 2.5 mg/kg) was 5/10, the Mortality ([2]; dose 5 mg/kg) was 0/10 and the Mortality ([2]; dose 10 mg/kg) was 0/10.
Nc1nc(/C(=N/OCC2CC2)C(=O)N[C@@H]2C(=O)N3C(C(=O)O)=C(Sc4ccnn4-c4ccccc4)CS[C@H]23)cs1 [Cmpd 108, (7R)-7-[(Z)-2-(2-aminothiazol-4-yl)-2-(cyclopropylmethyloxyimino)acetamido]-3-(1-N-phenylpyrazol-5-ylthio)-3-cephem-4-carboxylic acid] was tested, and the MIC [1] was 4 µg/mL (≈ 6.69 µM), the Mortality ([2]; dose 0.625 mg/kg) was 9/10 and the Mortality ([2]; dose 1.25 mg/kg) was 8/10. For the same compound, the Mortality ([2]; dose 2.5 mg/kg) was 9/10, the Mortality ([2]; dose 5 mg/kg) was 10/10 and the Mortality ([2]; dose 10 mg/kg) was 10/10.
In the case of O=C(CSc1ccncc1)N[C@@H]1C(=O)N2C(C(=O)O)=C(Sc3ccnn3-c3ccccc3)CS[C@H]12 [Cmpd 110, (7R)-7-[(4-pyridylthioacetyl)amino]-3-(1-N-phenylpyrazol-5-ylthio)-3-cephem-4-carboxylic acid], the MIC [1] is reported as 2 µg/mL (≈ 3.8 µM), the Mortality ([2]; dose 0.625 mg/kg) is reported as 8/10 and the Mortality ([2]; dose 1.25 mg/kg) is reported as 7/10. For the same compound, the Mortality ([2]; dose 2.5 mg/kg) was 8/10, the Mortality ([2]; dose 5 mg/kg) was 6/10 and the Mortality ([2]; dose 10 mg/kg) was 0/10.
O=C(COc1ccccc1)N[C@@H]1C(=O)N2C(C(=O)O)=C(Sc3ccnn3-c3ccccc3)CS[C@H]12 [Cmpd 112, (7R)-7-[(phenyloxyacetyl)amino]-3-(1-N-phenylpyrazol-5-ylthio)-3-cephem-4-carboxylic acid] was tested, and the MIC (S. aureus ATCC 29213) was ≤ 0.06 µg/mL, the MIC [3] was ≤ 0.06 µg/mL and the MIC [1] was 4 µg/mL (≈ 7.87 µM).
O=C(O)C1=C(Sc2ccnn2-c2ccccc2)CS[C@@H]2[C@H](NC(=O)C3SCCS3)C(=O)N12 [Cmpd 115, (7R)-7-[(2-dithiolanylcarbonyl)amino]-3-(1-N-phenylpyrazol-5-ylthio)-3-cephem-4-carboxylic acid] was tested, and the MIC [1] was 4 µg/mL (≈ 7.89 µM), the Mortality ([2]; dose 0.625 mg/kg) was 8/10 and the Mortality ([2]; dose 1.25 mg/kg) was 9/10. For the same compound, the Mortality ([2]; dose 2.5 mg/kg) was 7/10, the Mortality ([2]; dose 5 mg/kg) was 4/10 and the Mortality ([2]; dose 10 mg/kg) was 0/10.
With Cc1nnc(SCC(=O)N[C@@H]2C(=O)N3C(C(=O)O)=C(Sc4ccnn4-c4ccccc4)CS[C@H]23)s1 [Cmpd 118] the MIC [1] was 4 µg/mL (≈ 7.32 µM), the Mortality ([2]; dose 0.625 mg/kg) was 8/10 and the Mortality ([2]; dose 1.25 mg/kg) was 6/10. For the same compound, the Mortality ([2]; dose 2.5 mg/kg) was 8/10, the Mortality ([2]; dose 5 mg/kg) was 4/10 and the Mortality ([2]; dose 10 mg/kg) was 2/10.
For O=C(CSc1ccccc1)N[C@@H]1C(=O)N2C(C(=O)O)=C(Sc3ccnn3-c3ccccc3)CS[C@H]12 [Cmpd 119, (7R)-7-[(phenylthioacetyl)amino]-3-(1-N-phenylpyrazol-5-ylthio)-3-cephem-4-carboxylic acid], the MIC [1] was 2 µg/mL (≈ 3.81 µM), the Mortality ([2]; dose 0.3125 mg/kg) was 10/10 and the Mortality ([2]; dose 0.625 mg/kg) was 9/10. For the same compound, the Mortality ([2]; dose 1.25 mg/kg) was 10/10, the Mortality ([2]; dose 2.5 mg/kg) was 7/10 and the Mortality ([2]; dose 5 mg/kg) was 8/10.
With N#CCSCC(=O)N[C@@H]1C(=O)N2C(C(=O)O)=C(Sc3ccnn3-c3ccccc3)CS[C@H]12 [Cmpd 122, (7R)-7-[(cyanomethylthioacetyl)amino]-3-(1-N-phenylpyrazol-5-ylthio)-3-cephem-4-carboxylic acid] the MIC [1] was 4 µg/mL (≈ 8.2 µM), the Mortality ([2]; dose 0.625 mg/kg) was 8/10 and the Mortality ([2]; dose 1.25 mg/kg) was 6/10. For the same compound, the Mortality ([2]; dose 2.5 mg/kg) was 0/10, the Mortality ([2]; dose 5 mg/kg) was 0/10 and the Mortality ([2]; dose 10 mg/kg) was 0/10.
With CC(C)N=C(NC(C)C)SCC(=O)N[C@@H]1C(=O)N2C(C(=O)O)=C(Sc3ccccc3CSC(=N)N)CS[C@H]12 [Cmpd 125, (7R)-7-[((N,N'-diisopropylisothiouronium)acetyl)amino]-3-(2-isothiouroniummethylphenylthio)-3-cephem-4-carboxylate, trifluoroacetic acid salt] the MIC [1] was 4 µg/mL, the Mortality ([2]; dose 0.625 mg/kg) was 9/10 and the Mortality ([2]; dose 1.25 mg/kg) was 10/10. The Mortality ([2]; dose 2.5 mg/kg) was 7/10, the Mortality ([2]; dose 5 mg/kg) was 4/9 and the Mortality ([2]; dose 10 mg/kg) was 7/10.
In the case of CSCC(=O)N[C@@H]1C(=O)N2C(C(=O)O)=C(Sc3ccccc3CSC(=N)N)CS[C@H]12 [Cmpd 127, (7R)-7-[(methylthioacetyl)amino]-3-(2-isothiouroniummethylphenylthio)-3-cephem-4-carboxylate, inner salt], the MIC [1] is reported as 4 µg/mL, the Mortality ([2]; dose 0.3125 mg/kg) is reported as 6/10 and the Mortality ([2]; dose 0.625 mg/kg) is reported as 5/10. The Mortality ([2]; dose 1.25 mg/kg) was 4/10, the Mortality ([2]; dose 2.5 mg/kg) was 2/10 and the Mortality ([2]; dose 5 mg/kg) was 1/10.
O=C(O)C1=C(Sc2ccnn2-c2ccccc2)CS[C@@H]2[C@H](NC(=O)/C(=N\O)c3ccccc3)C(=O)N12 [Cmpd 130, (7R)-7-[(Z)-2-(Phenyl)-2-(hydroxyimino)acetamido]-3-(1-N-(phenyl)pyrazol-5-ylthio)-3-cephem-4-carboxylic acid] was tested, and the MIC [1] was 2 µg/mL (≈ 3.83 µM), the Mortality ([2]; dose 0.625 mg/kg) was 10/10 and the Mortality ([2]; dose 1.25 mg/kg) was 7/10. For the same compound, the Mortality ([2]; dose 2.5 mg/kg) was 9/10, the Mortality ([2]; dose 5 mg/kg) was 6/10 and the Mortality ([2]; dose 10 mg/kg) was 6/10.
For O=C(CS/C=C\Cl)N[C@@H]1C(=O)N2C(C(=O)O)=C(Sc3ccnn3-c3ccccc3)CS[C@H]12 [Cmpd 131, (7R)-7-[((Z-2-Chlorovinyl)thioacetyl)amino]-3-(1-N-phenylpyrazol-5-ylthio)-3-cephem-4-carboxylic acid], the MIC (S. aureus ATCC 29213) was < 0.06 µg/mL, the MIC [1] was 1 µg/mL (≈ 1.96 µM) and the Mortality ([2]; dose 0.625 mg/kg) was 9/10. The Mortality ([2]; dose 1.25 mg/kg) was 7/10, the Mortality ([2]; dose 2.5 mg/kg) was 4/10 and the Mortality ([2]; dose 5 mg/kg) was 0/10. The Mortality ([2]; dose 10 mg/kg) was 0/10.

— patent US5698547A, “Cephalosporin antibiotics” (Microcide Pharmaceuticals, Inc., priority 1995, dated 1997)
